In patent US8507683B2, “Compounds for the treatment of hepatitis C” (Bristol-Myers Squibb Company, priority 2010, dated 2013):

Tests used:
[1] = system: genotype 1b HCV replicon in Huh-7 cells; experiment: HCV replicon luciferase assay, genotype 1b; type: cell-based; details: Hepatitis C virus, 1b genotype replicon
Description: (§1) Cell Lines. The cell lines used to evaluate compounds consist of a human hepatocyte derived cell line (Huh-7) that constitutively expresses a genotype 1a or 1b HCV replicon containing a Renilla luciferase reporter gene. These cells were maintained in Dulbecco's modified Eagle medium (DMEM) containing 10% FBS, 100 U/mL penicillin/streptomycin and 1.0 mg/mL G418.
(§2) HCV Replicon Luciferase Assay. To evaluate compound efficacy, HCV replicon cells were seeded in 96-well plates in DMEM containing 10% FBS at a cell density of 10^4/well. Following incubation at 37° C. overnight, compounds serially diluted in DMSO were added to the cell plates. Alternatively, titrated compounds were transferred to sterile 384-well tissue-culture treated plates and the plates seeded with 50 μL of cells at a density of 2.4×10^3 cells/well in DMEM containing 4% FCS (final DMSO concentration at 0.5%). After 3 days incubation at 37° C., cells were analyzed for Renilla Luciferase activity using the EnduRen substrate (Promega cat #E6485) according to the manufacturer's directions. Briefly, the EnduRen substrate was diluted in DMEM and then added to the plates to a final concentration of 7.5 μM. The plates were incubated for at least 1 h at 37° C. then read on a TopCount NXT Microplate Scintillation and Luminescence Counter (Packard) or Viewlux Imager (PerkinElmer) using a luminescence program. The 50% effective concentration (EC50) was calculated using the exponential form of the median effect equation where EC50=100−[(δFinh/δFcon)×100].

[2] = molecular target: HCV NS5B RdRp genotype 1b (Hepatitis C virus genotype 1b (isolate Con1) (HCV), UniProt Q9WMX2); experiment: HCV NS5B RdRp enzyme assay; type: biochemical
Description: HCV NS5B RdRp Cloning, Expression, and Purification. The cDNA encoding the NS5B protein of HCV, genotype 1b, was cloned into the pET21a expression vector. The protein was expressed with an 18 amino acid C-terminal truncation to enhance the solubility. The E. coli competent cell line BL21(DE3) was used for expression of the protein. Cultures were grown at 37° C. for ˜4 hours until the cultures reached an optical density of 2.0 at 600 nm. The cultures were cooled to 20° C. and induced with 1 mM IPTG. Fresh ampicillin was added to a final concentration of 50 μg/mL and the cells were grown overnight at 20° C.
Cell pellets (3 L) were lysed for purification to yield 15-24 mgs of purified NS5B. The lysis buffer consisted of 20 mM Tris-HCl, pH 7.4, 500 mM NaCl, 0.5% triton X-100, 1 mM DTT, 1 mM EDTA, 20% glycerol, 0.5 mg/ml lysozyme, 10 mM MgCl2, 15 ug/ml deoxyribonuclease I, and Complete TM protease inhibitor tablets (Roche). After addition of the lysis buffer, frozen cell pellets were resuspended using a tissue homogenizer. To reduce the viscosity of the sample, aliquots of the lysate were sonicated on ice using a microtip attached to a Branson sonicator. The sonicated lysate was centrifuged at 100,000×g for 30 minutes at 4° C. and filtered through a 0.2 μm filter unit (Corning).
The protein was purified using two sequential chromatography steps: Heparin sepharose CL-6B and polyU sepharose 4B. The chromatography buffers were identical to the lysis buffer but contained no lysozyme, deoxyribonuclease I, MgCl2 or protease inhibitor and the NaCl concentration of the buffer was adjusted according to the requirements for charging the protein onto the column. Each column was eluted with a NaCl gradient which varied in length from 5-50 column volumes depending on the column type. After the final chromatography step, the resulting purity of the enzyme is >90% based on SDS-PAGE analysis. The enzyme was aliquoted and stored at −80° C.
Standard HCV NS5B RdRp Enzyme Assay. HCV RdRp genotype 1b assays were run in a final volume of 60 μl in 96 well plates (Costar 3912) . The assay buffer is composed of 20 mM Hepes, pH 7.5, 2.5 mM KCl, 2.5 mM MgCl2, 1 mM DTT, 1.6 U RNAse inhibitor (Promega N2515), 0.1 mg/ml BSA (Promega R3961), and 2% glycerol. All compounds were serially diluted (3-fold) in DMSO and diluted further in water such that the final concentration of DMSO in the assay was 2%. HCV RdRp genotype 1b enzyme was used at a final concentration of 28 nM. A polyA template was used at 6 nM, and a biotinylated oligo-dT12 primer was used at 180 nM final concentration. Template was obtained commercially (Amersham 27-4110). Biotinylated primer was prepared by Sigma Genosys. ^3H-UTP was used at 0.6 μCi (0.29 μM total UTP). Reactions were initiated by the addition of enzyme, incubated at 30° C. for 60 min, and stopped by adding 25 μL of 50 mM EDTA containing SPA beads (4 μg/μL, Amersham RPNQ 0007). Plates were read on a Packard Top Count NXT after >1 hr incubation at room temperature.
Modified HCV NS5B RdRp Enzyme Assay. An on-bead solid phase homogeneous assay was also used to assess NS5B inhibitors (WangY-K, Rigat K, Roberts S, and Gao M (2006) Anal Biochem, 359: 106-111). The assay is a modification of the standard assay described above and was used in a 96-well or a 384-well format. […]

[3] = system: genotype 1a HCV replicon in Huh-7 cells; experiment: HCV replicon luciferase assay, genotype 1a; type: cell-based; details: Hepatitis C virus, 1a genotype used for replicon data
Description: as §1
as §2, with “The 50% effective concentration (EC50) was calculated using the exponential form of the median effect equation where EC50=100−[(δFinh/δFcon)×100].” left out

[4] = system: HCV; details: cited from earlier work

Chain of HCV NS5B RdRp genotype 1b (Q9WMX2 2420-2992): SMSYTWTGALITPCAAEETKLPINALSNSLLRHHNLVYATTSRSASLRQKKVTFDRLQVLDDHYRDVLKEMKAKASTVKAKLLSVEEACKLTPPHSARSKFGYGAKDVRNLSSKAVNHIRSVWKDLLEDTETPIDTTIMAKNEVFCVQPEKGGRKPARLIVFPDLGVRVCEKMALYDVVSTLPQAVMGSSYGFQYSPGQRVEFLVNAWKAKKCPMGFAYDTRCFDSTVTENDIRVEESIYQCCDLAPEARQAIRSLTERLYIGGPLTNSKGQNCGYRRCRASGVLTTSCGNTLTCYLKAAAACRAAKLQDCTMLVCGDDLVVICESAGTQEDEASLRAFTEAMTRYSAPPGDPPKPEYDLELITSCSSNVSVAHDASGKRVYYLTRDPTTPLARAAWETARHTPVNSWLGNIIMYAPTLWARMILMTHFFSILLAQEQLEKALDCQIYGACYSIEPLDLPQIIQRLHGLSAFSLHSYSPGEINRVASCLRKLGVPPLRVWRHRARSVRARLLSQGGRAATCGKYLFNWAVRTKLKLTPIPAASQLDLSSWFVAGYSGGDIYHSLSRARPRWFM

Structure (SMILES) | EC50 [1] [nM] | IC50 [2] [nM] | EC50 [3] [nM] | hepatic toxicity ([4]; extended dosing of the combination regimens with interferon and ribavirin) | HCV RNA levels in patients ([4]; patients, single agent)
CNC(=O)c1c(-c2ccc(F)cc2)oc2ccc(-c3cc(C(=O)NC4(c5ccccc5)COC4)ccc3C)c(F)c12 | 4 | 57 | – | – | –
CNC(=O)c1c(-c2ccc(F)cc2)oc2ccc(-c3cc(C(=O)NC4(c5ccccn5)COC4)c(OC)cc3C)c(F)c12 | 8 | 17 | – | – | –
CNC(=O)c1c(-c2ccc(F)cc2)oc2ccc(-c3cc(C(=O)NC4(c5ncccn5)COC4)c(OC)cc3C)c(F)c12 [4-fluoro-2-(4-fluorophenyl)-5-(4-methoxy-2-methyl-5-(3-(pyrimidin-2-yl)oxetan-3-ylcarbamoyl)phenyl)-N-methylbenzofuran-3-carboxamide] | 12 | 22 | – | – | –
CNC(=O)c1c(-c2ccc(F)cc2)oc2ccc(-c3cc(C(=O)NC4(c5ccccn5)COC4)ccc3C)c(F)c12 [4-fluoro-2-(4-fluorophenyl)-N-methyl-5-(2-methyl-5-(3-(pyridin-2-yl)oxetan-3-ylcarbamoyl)phenyl)benzofuran-3-carboxamide] | – | 24 | 24 | – | –
CNC(=O)c1c(-c2ccc(F)cc2)oc2ccc(-c3cc(C(=O)NC4(c5ncccn5)COC4)ccc3C)c(F)c12 [4-fluoro-2-(4-fluorophenyl)-N-methyl-5-(2-methyl-5-(3-(pyrimidin-2-yl)oxetan-3-ylcarbamoyl)phenyl)benzofuran-3-carboxamide] | 15 | 10 | – | – | –
CNC(=O)c1c(-c2ccc(F)cc2)oc2ccc(-c3cc(C(=O)NC4(c5ccccn5)COC4)cc(F)c3C)c(F)c12 [4-fluoro-5-(3-fluoro-2-methyl-5-(3-(pyridin-2-yl)oxetan-3-ylcarbamoyl)phenyl)-2-(4-fluorophenyl)-N-methylbenzofuran-3-carboxamide] | 6 | 16 | – | – | –
CNC(=O)c1c(-c2ccc(F)cc2)oc2ccc(-c3cc(C(=O)NC4(c5ncccn5)COC4)cc(F)c3C)c(F)c12 [4-fluoro-5-(3-fluoro-2-methyl-5-(3-(pyrimidin-2-yl)oxetan-3-ylcarbamoyl)phenyl)-2-(4-fluorophenyl)-N-methylbenzofuran-3-carboxamide] | 12 | 6 | – | – | –
CNC(=O)c1c(-c2ccc(F)cc2)oc2cc(N(CCO)S(C)(=O)=O)c(C3CC3)cc12 [HCV-796] | – | – | – | hepatic toxicity observed | showed an ability to reduce HCV RNA levels in patients
